These results are taken from patent US20060210504A1, “Compositions and methods for inhibiting eccrine perspiration in humans” (priority 2001, published 2006).

Data set [1] deals with sweat production in the axilla (eccrine sweat glands). Description: Antiperspirant efficacy evaluation, standard hot room protocol (FDA OTC Antiperspirant Tentative Final Monograph). It counts as in vivo, human (healthy female volunteers). As to conditions: for mean reduction in sweat production: axilla, once daily for five days, about one hour after fifth treatment. As to the method: (§1) The antiperspirant efficacy and safety of glycopyrrolate, a quaternary ammonium salt, was tested pursuant to protocol prescribed by the Food and Drug Administration, 21CFR Part 10.90 The OTC Antiperspirant Tentative Final Monograph. So as to separate vehicle from drug effects, glycopyrrolate was presented as a simple solution in varying concentrations of 0.3%, 1% and 3% weight per volume. In each treatment group as listed below, the glycopyrrolate solution and a placebo of distilled water were applied to the axilla of healthy female volunteers. In particular, the placebo was applied to one armpit while the test solution was applied to the other armpit of a given volunteer. The designation of armpits (namely, right or left) for the application of placebo vs. solution was randomized according to the FDA protocol. In the placebo Group B, distilled water was applied to both axilla of each volunteer. Treatments were applied once daily for five consecutive days.
The groups comprised the following: • Group A—0.3% glycopyrrolate versus distilled water; • Group B—Placebo (distilled water applied to both axilla); • Group C—1% glycopyrrolate versus distilled water; • Group D—3% glycopyrrolate versus distilled water;
(§2) The clinical study was conducted among 37 healthy female volunteers. The testing further conformed to ICH guidelines and the requirements of the 1964 Declaration of Helsinki and its subsequent amendments. The study was a pilot, single-center, randomized, controlled, double-blind assessment of the safety, tolerability and antiperspirant efficacy of glycopyrrolate when applied to the axilla of healthy female volunteers.
The study was conducted in two cohorts of volunteers. The first cohort comprised fourteen (14) subjects, with […] subjects assigned to placebo Group B and ten (10) subjects assigned to 0.3% Group A.
Nine (9) days following the completion of the first cohort, a second cohort of twenty-three (23) subjects were tested, with three (3) subjects assigned to placebo Group B, ten (10) subjects assigned to 1% Group C, and ten (10) subjects assigned to 3% Group D.
(§3) The antiperspirant efficacy evaluation was performed approximately one hour after the fifth treatment using a standard hot room protocol. Safety and tolerance were measured by assessment of blood chemistry and hematology, electrocardiograms, daily monitoring of heart rate, blood pressure and body temperature, assessment of visual effects and dermal irritancy, and subjective assessment of tolerance.

For data set [2], the system named is healthy female volunteers. Description: Safety and tolerance assessment on topical application to the axilla. It counts as in vivo, human. As to the method: as §1, §2, §3
Setting [3] is: 1% w/v simple solution (Group C) vs distilled water.
[4] abbreviates: 3% w/v simple solution (Group D) vs distilled water.
Where [5] appears, read: 0.3%, 1% and 3% w/v topical to axilla, once daily for five days.

In the case of `C[N+]1(C)CCC(OC(=O)C(O)(c2ccccc2)C2CCCC2)C1` (stereo not drawn) [glycopyrrolate], in data set [1] (0.3% concentration), the “antiperspirant efficacy in words” value is “essentially ineffective”. In data set [1] (0.3% concentration, two subjects), the “inhibition enjoyed by two subjects” value is 0.50 % inhibition. Besides, the “statistical significance of reduction in sweat production” value is “no statistically significant reduction in sweat production” in data set [1] (0.3% w/v simple solution (Group A) vs distilled water), “significant sweat reduction” in data set [1] (setting [3]) and “significant sweat reduction” in data set [1] (setting [4]). The “binomial criteria of 95% confidence with at least 50% of the population showing at least 20% reduction in sweating” value in data set [1] (1% group) and in data set [1] (3% group) was “met the binomial criteria” throughout. For the same compound, the “range of effect (inhibition of sweating across subjects)” value in data set [1] (1% treatment group) is recorded as −16-to 54 % inhibition; in data set [1] (3% treatment group) it was −13 to 90 % inhibition. For the same compound, the “mean reduction in sweat production” value in data set [1] (setting [3]) is listed as 32.85%±9.81; in data set [1] (setting [4]) it was 54.72%±20.23. Moreover, the “dose dependence of antiperspirant effect” value in data set [1] (simple solution, 0.3%, 1% and 3%, highest efficacy at 3%) is reported as “dose-dependent antiperspirant effect”. Further, the “pupillary dilation or other systemic symptoms of anticholinergic agents” value in data set [2] (setting [5]) is reported as “no signs of pupillary dilation or other systemic symptoms”. For the same compound, the serious adverse events entry in data set [2] (setting [5]) was “No serious adverse events”. Besides, the “adverse events, clinical significance” value in data set [2] (reviewed by principal investigator and attendant cardiologist) was “clinically non-significant”.
